Experimental data reported in ChEMBL document CHEMBL1149432, “Evaluation of hydroxyimine as cytochrome P450-selective prodrug structure” (J Med Chem, 2006).
In brackets after ≈: the same amount, converted by molar mass.

Tests used:
[1] = Aqueous solubility at pH 7.4
[2] = Aqueous solubility at pH 5.0
[3] = Metabolic stability by incubation with rat liver microsomes treated with Phenobarbital; assay type: ADME, Microsome
[4] = Chemical stability at pH 1.0; assay type: physicochemical; conditions: buffer
[5] = Chemical stability at pH 5.0; assay type: physicochemical; conditions: buffer
[6] = Chemical stability at pH 7.4; assay type: physicochemical; conditions: buffer
[7] = Chemical stability at pH 9.0; assay type: physicochemical; conditions: buffer
[8] = Chemical stability in 80% human serum (pH 7.4); assay type: physicochemical
[9] = Metabolic stability by incubation with rat liver microsomes; assay type: ADME, Microsome
[10] = Metabolic stability by incubation with rat liver microsomes treated with Dexamethasone; assay type: ADME, Microsome
[11] = Metabolic stability by incubation with rat liver microsomes treated with 3-methylcholanthrene; assay type: ADME, Microsome; conditions: 3-methylcholanthrene-treated
[12] = Metabolic stability by incubation with human liver microsomes; assay type: ADME, Microsome
[13] = Distribution coefficient at pH 5.0, log D; conditions: octanol/water
[14] = Distribution coefficient at pH 7.4, log D; conditions: octanol/water
[15] = Chemical stability at pH 3.0; assay type: physicochemical; conditions: buffer
[16] = target: T1, CYP2B6 (Homo sapiens, UniProt P20813); test: Binding constant for compound binding to CYP2B6; assay type: ADME
T1 sequence (P20813 whole entry): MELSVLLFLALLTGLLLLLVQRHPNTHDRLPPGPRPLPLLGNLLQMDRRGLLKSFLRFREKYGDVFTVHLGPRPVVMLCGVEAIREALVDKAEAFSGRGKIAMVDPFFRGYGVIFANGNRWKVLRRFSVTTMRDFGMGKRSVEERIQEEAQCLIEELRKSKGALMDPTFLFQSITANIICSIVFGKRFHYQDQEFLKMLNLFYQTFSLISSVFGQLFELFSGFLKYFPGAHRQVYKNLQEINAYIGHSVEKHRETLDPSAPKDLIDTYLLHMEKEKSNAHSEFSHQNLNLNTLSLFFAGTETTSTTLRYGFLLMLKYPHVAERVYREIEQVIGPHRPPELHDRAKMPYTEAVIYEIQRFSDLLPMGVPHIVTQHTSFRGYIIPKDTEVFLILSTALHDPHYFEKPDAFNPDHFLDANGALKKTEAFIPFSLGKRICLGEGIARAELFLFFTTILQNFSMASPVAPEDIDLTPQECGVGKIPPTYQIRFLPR

[17] = Half life in rat urine at 37 °C; conditions: in vitro

SMILES: CC(C(=O)O)c1cccc(/C(=N\O)c2ccccc2)c1 (stereo not given)
- solubility ([1]; buffer): 116000 µg/mL (≈ 431000 µM)
- solubility [2]: 1800 µg/mL (≈ 6680 µM)
- half-life [3]: 84 h
- half-life [4]: 6 h
- T1/2 [5]: Not Active
- T1/2 [6]: Not Active
- T1/2 [7]: Not Active
- half-life [8]: 796 h
- half-life [9]: 167 h
- half-life [10]: 72 h
- half-life [11]: 100 h
- half-life [12]: 83.6 h

SMILES: COc1ccc2cc(CC/C(C)=N/O)ccc2c1
- solubility ([1]; buffer): 2 µg/mL (≈ 8.22 µM)
- solubility [2]: 3 µg/mL (≈ 12.3 µM)
- half-life [3]: 0.467 h
- logD [13]: 3.6
- logD [14]: 3.6
- half-life [4]: 0.1 h
- half-life [15]: 0.183 h
- half-life [5]: 16.3 h
- half-life [6]: 720 h
- T1/2 [7]: Not Active
- half-life [8]: 591 h
- half-life [9]: 0.967 h
- half-life [10]: 0.767 h
- half-life [11]: 0.0333 h
- half-life [12]: 0.85 h
- Km [16]: 70 µM
- half-life [17]: 69 h

SMILES: CC(C(=O)O)c1cccc(C(=O)c2ccccc2)c1 (stereo not given) [KETOPROFEN]
- logD [13]: 2.1
- logD [14]: 0.008

SMILES: COc1ccc2cc(CCC(C)=O)ccc2c1 [NABUMETONE]
- solubility ([1]; aqueous): 4.3 µg/mL (≈ 18.8 µM)
- solubility [2]: 6.4 µg/mL (≈ 28 µM)
- logD [13]: 3.2
- logD [14]: 3.3
